Experimental data as given in PMC11578313, “Miniaturized Modular Click Chemistry‐enabled Rapid Discovery of Unique SARS‐CoV‐2 M^pro Inhibitors With Robust Potency and Drug‐like Profile” (Advanced Science, 2024).
Several values for one entry are separate records, joined by “and”; a condition that tells them apart may be missing. Equal values may be shown once. Read-outs that look alike come from different tables or passages of the source.

How the values were obtained:
SARS‐CoV‐2 [1] = test: microbe, parasite or virus in culture; format: cell-based
in vitro [2] = settings: human, CC50, Calu‐3 cells, MTT assay
in vitro [3] = settings: African green monkey
[4] = system: SARS‐CoV‐2 (hCoV‐19/Korea/KCDC06/2020, wild type); test: microbe, parasite or virus in culture; format: cell-based
SARS‐CoV‐2 M^pro = SARS‐CoV‐2 M^pro (Severe acute respiratory syndrome coronavirus 2, UniProt P0DTD1); test: SARS‐CoV‐2 main protease enzymatic assay (FRET inhibitor screening kit); format: biochemical; settings: for inhibition at 5 µM: read-out: Inhibitionrate at @5μM
SARS‐CoV‐2 [5] = settings: Vero E6; cited from earlier work
[6] = cited from earlier work
SARS-CoV-2 M^pro = settings: cited from earlier work
[7] = Severe acute respiratory syndrome coronavirus 2, Vero cells, with CP‐100356, read-out: EC50 ± SD, Vero cells, with P‐gp inhibitor
[8] = Severe acute respiratory syndrome coronavirus 2, Vero cells, without CP‐100356, read-out: EC50 ± SD, Vero cells, without P‐gp inhibitor
[9] = Severe acute respiratory syndrome coronavirus 2, Calu-3, Calu‐3 cells, with CP‐100356, read-out: EC50 ± SD, Calu‐3 cells, with P‐gp inhibitor
[10] = Severe acute respiratory syndrome coronavirus 2, Calu-3, Calu‐3 cells, without CP‐100356, read-out: EC50 ± SD, Calu‐3 cells, without P‐gp inhibitor

Row | Structure (SMILES) | EC50 (SARS‐CoV‐2 [1]; [7]) [µM] | EC50 (SARS‐CoV‐2 [1]; [8]) [µM] | CC50 at 2 day (in vitro [2]) [µM] | CC50 at 2 day (in vitro [3]) [µM] | EC50 [4, 9] [nM] | EC50 [4, 10] [nM] | IC50 (SARS‐CoV‐2 M^pro) | inhibition of M^pro enzymatic activity, first round of screening (SARS‐CoV‐2 M^pro) [%] | inhibition at 5 µM (SARS‐CoV‐2 M^pro) [%] | EC50 ([4]; Calu‐3 cells, with CP‐100356, read-out: EC50 ± SD, Calu‐3 cells, with P‐gp inhibitor) [nM] | EC50 (SARS‐CoV‐2 [1]; Severe acute respiratory syndrome coronavirus 2, Vero, read-out: EC50 ± SD, Vero cells, with P‐gp inhibitor) [µM] | EC50 (SARS‐CoV‐2 [1]; Severe acute respiratory syndrome coronavirus 2, Vero, read-out: EC50 ± SD, Vero cells, without P‐gp inhibitor) [µM] | EC50 ([4]; Severe acute respiratory syndrome coronavirus 2, Calu-3, read-out: EC50 ± SD, Calu‐3 cells, with P‐gp inhibitor) [nM] | EC50 ([4]; Severe acute respiratory syndrome coronavirus 2, Calu-3, read-out: EC50 ± SD, Calu‐3 cells, without P‐gp inhibitor) [nM] | EC50 ([4]; read-out: EC50 ± SD, Calu‐3 cells, without P‐gp inhibitor) [nM] | EC50 (SARS‐CoV‐2 [5]) [nM] | half‐life [6] [h] | oral bioavailability [6] [%] | IC50 (SARS-CoV-2 M^pro) [nM]
1 | Cc1cncc(C(=O)N2C[C@H]3CC[C@@H](C2)N3C(c2cccc(F)c2)c2cn(C[S+]([O-])c3ccccc3)nn2)c1 (stereo partly drawn) [Compound C5N41] | 2.27 ± 0.089 | 3.67 ± 0.513 | > 100 | > 100 | 97 ± 5 | 1780 ± 1 | 243 ± 11 nM | 100 | 92.3 | – | – | – | – | – | – | – | – | – | –
2 | Cc1cncc(C(=O)N2C[C@H]3CC[C@@H](C2)N3C(c2cccc(F)c2)c2cn(CS(=O)(=O)c3ccccc3)nn2)c1 (stereo partly drawn) [Compound C5N42] | 3.05 ± 0.206 | 3.68 ± 0.952 | > 100 | > 100 | 133 ± 19 | 1770 ± 55 | 196 ± 9 nM | 101 | 96.2 | – | – | – | – | – | – | – | – | – | –
3 | Cc1cncc(C(=O)N2C[C@H]3CC[C@@H](C2)N3C(c2cccc(F)c2)c2cn(Cc3ccc(S(C)(=O)=O)cc3)nn2)c1 (stereo partly drawn) [Compound C5N50] | 6.57 ± 0.43 | 36.1 ± 1.38 | > 100 | > 100 | 2900 ± 263 | 17000 ± 778 | 2400 ± 100 nM | 90 | 69 | – | – | – | – | – | – | – | – | – | –
4 | CNC(=O)Cn1cc(C(c2cccc(F)c2)N2[C@@H]3CC[C@H]2CN(C(=O)c2cncc(C)c2)C3)nn1 (stereo partly drawn) [Compound C5N57] | > 10 | > 100 | > 100 | > 100 | 2330 ± 66 | 4040 ± 986 | 580 ± 5 nM | 96 | 85.1 | – | – | – | – | – | – | – | – | – | –
5 | Cc1cncc(C(=O)N2C[C@H]3CC[C@@H](C2)N3C(c2cccc(F)c2)c2cn(CC(N)=O)nn2)c1 (stereo partly drawn) [Compound C5N58] | 1.39 ± 0.171 | > 100 | > 100 | > 100 | 337 | 4940 ± 687 | 151 ± 6 nM | 99 | 100 | 338 ± 56 | – | – | – | – | – | – | – | – | –
6 | Cc1cncc(C(=O)N2C[C@H]3CC[C@@H](C2)N3C(c2cccc(F)c2)c2cn(Cc3cccc(F)c3)nn2)c1 (stereo partly drawn) [Compound C5N64] | 2.86 ± 0.131 | 4.2 ± 0.738 | > 100 | > 100 | 479 ± 26 | 2940 ± 124 | 1230 ± 100 nM | 93 | 79.9 | – | – | – | – | – | – | – | – | – | –
7 | O=C(c1cccnc1)N1C[C@H]2CC[C@@H](C1)N2C(c1cccc(F)c1)c1cn(CCc2ccsc2)nn1 (stereo partly drawn) [Compound C6N17] | – | – | – | – | – | – | 300 ± 12 nM | 90 | 91.7 | – | – | – | – | – | – | – | – | – | –
8 | O=C(c1cccnc1)N1C[C@H]2CC[C@@H](C1)N2C(c1cccc(F)c1)c1cn(CCN2C(=O)c3ccccc3C2=O)nn1 (stereo partly drawn) [Compound C6N21] | – | – | – | – | – | – | 200 ± 16 nM | 89 | 95.1 | – | – | – | – | – | – | – | – | – | –
9 | Cn1cnc(Cn2c(=O)[nH]/c(=N\c3cc4cn(C)nc4cc3Cl)n(Cc3cc(F)c(F)cc3F)c2=O)n1 [Ensitrelvir, reference compound] | – | – | > 100 | > 100 | – | – | – | – | – | – | < 0.046 | 0.165 ± 0.015 | < 46 | 110 | 112 ± 11 | – | – | – | –
10 | O=C(NCc1cccs1)C1CN(C(=O)c2cccnc2)CCN1c1ccc(Cl)c(Cl)c1 (stereo not drawn) [GC‐14, reference compound] | 3.42 ± 0.443 | – | > 100 | – | 755 ± 46 | 1420 ± 57 | 800 nM and 750 nM | 98 | – | – | – | – | – | – | – | 1100 | 1.72 | 7.2 | 400
